Data taken from US9642922B2, “Caspase-triggered nano-aggregation probes and methods of use” (The Board of Trustees of the Leland Stanford Junior …, priority 2013, dated 2017).
Where a chain is given by its changes, count along the chain named. Marks after values point to notes of the source that are not given here.

What was measured:
[1] = tested on: STS-induced apoptotic HeLa cells; assay: Flow cytometry of STS-induced apoptotic HeLa cells labeled with probes; assay type: cell-based, human; details: 2 μM probe, compared with C-SNAF
Experimental: Approximately 10^5 HeLa cells in 1 mL DMEM medium were seeded onto 12-well plates. […] For the inhibitor blocking experiment, the STS-treated cells were first incubated with the caspase inhibitor Z-VAD-fmk (50 μM, R&D Systems) for 30 min, and then 2 μM C-SNAF was added. All cells incubations were 24 h, followed by staining with FLICA (FAM) after trypsinization. After washing with PBS (1×) three times, the cell pellets were resuspended in 300 μL PBS and applied for flow cytometry analysis using the FITC and Cy5.5 channels. The cell number for each flow cytometry analysis was approximately 5000 to 10000, and the data was processed using FlowJo software.

apoptotic HeLa cells = assay: Epifluorescence microscopy of apoptotic HeLa cells labeled with probes; assay type: cell-based, human; details: microscopy, 2 μM probe
Experimental: After removal of the medium, the cells were incubated with C-SNAF, L-ctrl, or D-ctrl at 2 μM for 24 h. Some cells were first incubated with caspase inhibitor (Z-VAD-fmk, 50 μM) for 30 min, followed by incubating with 2 μM C-SNAF for 24 h. The cells were carefully washed with PBS (1×) three times, and stained with Hoechst 33342 (2 μM) at 37° C. for 30 min. After rinses with PBS (1×) several times, the medium was replaced and the fluorescence images were acquired with DAPI and Cy5.5 filters. The images were processed using the standard CRi Nuance software, analyzed using Image J software package (NIH), and presented at the same intensity scale for comparison.
HeLa cells in #1.5 borosilicate 8-well chambered coverslips (Nunc) were either incubated with C-SNAF (2 μM) alone or co-incubated with DOX (1, 2, and 5 μM) and 2 μM C-SNAF, 2 μM C-SNAF together with caspase inhibitor (Z-VAD-fmk, 50 μM), or control probes D-ctrl and L-ctrl at 2 μM for 24 h. Then the medium was removed, the cells were carefully washed with PBS (1×) three times, and stained with nuclear binding probe Hoechst 33342 (2 μM) at 37° C. for 30 min. After several rinses with PBS (1×), the medium was replaced and the fluorescence images were acquired with DAPI and […] filters.

subcutaneous HeLa tumors = assay: In vivo fluorescence imaging of DOX-treated HeLa tumor-bearing mice; set-up: species or system mouse
Experimental: C-SNAF or either of the control probes (5 nmol) was administered intravenously to tumor-bearing mice and whole animal fluorescence was longitudinally monitored using a Maestro fluorescence imager.
To establish tumors in 6-week-old female nu/nu mice, 2×10^6 HeLa cells suspended in 50 μL of a 50% v/v mixture of Matrigel in supplemented DMEM (10% FBS, 1% penstrep) were injected subcutaneously in the shoulders of the mouse. Tumors were grown until a single aspect was 0.7 to 0.9 cm (approximately 10-15 days), and then treatment consisting of 8 mg/kg DOX or saline was initiated. Treatments were administered intravenously once every 4 d for a total of three times. Total mouse body weight and tumor size (width and length by caliper) was measured every other day. Tumor volumes were calculated assuming ellipsoid shape with the formula (l×w^2)/2.
Two days following the final treatment, 5 nmol probe in saline was injected intravenously and fluorescence imaging began immediately on a Maestro hyperspectral fluorescent imaging system (PerkinElmer, Mass., USA) using a 635±25 nm excitation filter and a 675 nm long-pass emission filter, with images acquired from 670 to 900 nm. Tissue autofluorescence and Cy5.5 fluorescence were deconvolved, and tumor fluorescence intensity was quantified by region of interest measurement using Nuance v.3.0.1.2 software (Perkin Elmer, Mass., USA).

caspase-3 [2] = target: T1, caspase-3 (Homo sapiens, UniProt P42574); assay: HPLC assay of caspase-3-triggered macrocyclization of C-SNAF; assay type: biochemical; set-up: purchased Sigma; host or cells: E. coli; details: same conditions as C-SNAF; D-ctrl after 24 h
T1 sequence (P42574 29-175 limits assumed): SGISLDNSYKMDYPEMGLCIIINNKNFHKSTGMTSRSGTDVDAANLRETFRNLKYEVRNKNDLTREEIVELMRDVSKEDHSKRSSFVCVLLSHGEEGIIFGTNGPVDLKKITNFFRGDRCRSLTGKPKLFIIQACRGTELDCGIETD
T1 sequence (P42574 176-277 limits assumed): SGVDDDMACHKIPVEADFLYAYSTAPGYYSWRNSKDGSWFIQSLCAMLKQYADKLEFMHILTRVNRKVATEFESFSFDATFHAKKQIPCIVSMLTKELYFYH
Experimental: The progression of caspase-3-triggered macrocyclization of C-SNAF to form C-SNAF-cycl in solution was monitored using high-performance liquid chromatography (HPLC) following incubation of the probe (25 μM) with recombinant human caspase-3 (4.9×10^−[…]).
Caspase (human, recombinant from E. coli) assays were performed for caspase-3 (4.9×10^−3 U; 7.35×10^−4 mg, Sigma), −7 (18.3 U; 7.35×10^−4 mg, Calbiochem), and −9 (0.3 U; 7.35×10^−4 mg, Calbiochem). All caspase assays were conducted in caspase buffer with 50 mM HEPES, 100 mM NaCl, 1 mM EDTA, 10 mM TCEP, 10% glycerol, and 0.1% CHAPS at pH 7.4. Cathepsin B (human liver; 0.27 U; 7.35×10^−4 mg, Calbiochem) and Legumain (human, recombinant from mouse myeloma cell line; >250 pmol/min/μg; 7.35×10^−4 mg, R&D Systems) were conducted in reaction buffer with 50 mM sodium acetate, 50 mM NaCl, 0.5 mM EDTA and 10 mM TCEP at pH 5.5. C-SNAF was diluted in the respective enzyme reaction buffer (25 μM, 1 mL) and remained at room temperature for 10 min, to which was then added the respective enzymes. Reactions were performed at 37° C., and monitored by HPLC hourly. The percentage conversion of the reaction was calculated based on the percentage of peak area of C-SNAF-cycl in the HPLC trace at 675 nm UV detection, which indicated the efficacy of enzyme cleavage of C-SNAF.

Caspase-3 [3] = target: T2, Caspase-3 (Mus musculus, UniProt P70677); details: cited from earlier work
T2 sequence (P70677 29-175 limits assumed): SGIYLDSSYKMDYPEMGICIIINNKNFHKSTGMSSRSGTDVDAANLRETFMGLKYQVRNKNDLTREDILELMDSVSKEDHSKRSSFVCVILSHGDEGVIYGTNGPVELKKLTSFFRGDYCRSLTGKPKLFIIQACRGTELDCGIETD
T2 sequence (P70677 176-277 limits assumed): T1 sequence (P42574 176-277 limits assumed) with V3T, D5E, D6E, H10Q, A46S, Q50L, D53H, F77L, A79S

PS binding = details: cited from earlier work

CC[N+]1=C(C=CC=CC=C2N(CCCCCC(=O)NCCCCC(NC(=O)C(CSC)NC(=O)C(CC(=O)O)NC(=O)C(NC(=O)C(CCC(=O)O)NC(=O)C(CC(=O)O)NC(C)=O)C(C)C)C(=O)Nc3ccc4nc(C5=NC(C(=O)NCCCOc6ccc7ncccc7c6)CS5)sc4c3)c3ccc4c(S(=O)(=O)O)cc(S(=O)(=O)O)cc4c3C2(C)C)C(C)(C)c2c1ccc1c(S(=O)(=O)O)cc(S(=O)(=O)[O-])cc21 [D-ctrl]
fluorescent intensity of apoptotic cells incubated with control probes [1]: much lower fluorescent intensity | fluorescence of apoptotic cells compared to C-SNAF (apoptotic HeLa cells): relatively weaker fluorescence | correlation (r) of maximum tumor fluorescence with maximum tumor size change (subcutaneous HeLa tumors; 3×DOX-treated mice, 1 h after probe): no significant correlation | average signal enhancement between DOX- and saline-treated tumors (subcutaneous HeLa tumors; 4 h after probe administration): −12% | tumor fluorescence lower than that of C-SNAF (subcutaneous HeLa tumors; DOX-treated mice, 1 h): 10% | products observed after incubation with caspase-3 (caspase-3 [2]): no new products were observed

O=C1C(=O)N(Cc2cn(CC[18F])nn2)c2ccc(S(=O)(=O)N3CCCC3COc3ccc(F)cc3F)cc21 (stereo not drawn) [[^18F]ICMT-11]
Target/Background (Tumor/blood) (Caspase-3 [3]; Tumor/blood): 1.2^c | time course of uptake at the apoptotic tumors (Caspase-3 [3]; mouse, in vivo): decreased over the time after injection | Treated/Untreated (Caspase-3 [3]; treated and untreated group in different animal): 1.5^d

B1: [^18F]Annexin V: known apoptosis PET tracer, PS binding (protein, UniProt P08758 2-320, looked up)
Annexin A5: AQVLRGTVTDFPGFDERADAETLRKAMKGLGTDEESILTLLTSRSNAQRQEISAAFKTLFGRDLLDDLKSELTGKFEKLIVALMKPSRLYDAYELKHALKGAGTNEKVLTEIIASRTPEELRAIKQVYEEEYGSSLEDDVVGDTSGYYQRMLVVLLQANRDPDAGIDEAQVEQDAQALFQAGELKWGTDEEKFITIFGTRSVSHLRKVFDKYMTISGFQIEETIDRETSGNLEQLLLAVVKSIRSIPAYLAETLYYAMKGAGTDDHTLIRVMVSRSEIDLFNIRKEFRKNFATSLYSMIKGDTSGDYKKALLLLCGEDD
modifications: 18F radiolabel
% ID/g at target site (PS binding; PET imaging): 1.56 ± 0.2 % ID/g | Target/Background (PS binding; maximum value at the apoptotic tissue): 3.4 | Treated/Untreated (PS binding; pre and post treatment in same animal): 1.6^b
